Laboratory results from US9067896B2, “Crystalline forms of 3-(2,6-dichloro-3,5-dimethoxy-phenyl)-1-{6-[4-(4-ethyl-piperazin-1-yl) -phenylamino]-pyrimidin-4-yl}-1-methyl-urea and salts thereof” (Novartis AG, priority 2009, dated 2015).
Like-named read-outs stand apart in the source and are kept apart here.

Columns and labels:
[1] = Pharmacokinetics / bioavailability in rats; assay type: in vivo; details: rats; for half-life: read-out: t1/2 terminal elimination (converted); for Cmax: read-out: Cmax [μmol/L ± SE]
Protocol: The higher water solubility of the phosphate salt compared to the free base (and other acid salts, as described above) led to the development of a solution formulation (or composition), which would not be feasible with the free base due to solubility restrictions. For this experiment, the phosphate salt was prepared as follows. In a glass vial, 10.7 mg of the free base was dissolved in 4 ml THF. Phosphoric acid (1.76 ml) in acetone (0.01M) was added. The mixture was warmed to 50° C. for about 2 minutes. The vial was left open for partial evaporation at room temperature. Overnight, a suspension was formed, which was filtered yielding about 5.5 mg of an off-white powder. The bioavailabilities, in rats, of the active agents (the free base and its phosphate salt), formulated variously, are tabulated below (Table 10).

Solid state stability = assay type: physicochemical; details: one week at 80° C., sealed containers and 75% relative humidity, alone and with excipients as 1% mixture, listed as anhydrous free base
Protocol: In the solid state, the samples were stressed for one week at 80° C., in sealed containers and under 75% relative humidity. […] The amount of degradation products of the anhydrous free base as assessed by HPLC was 1% or less (based on peak area), while the degradation of the phosphate salt accounted for 1.4% or less.

[2] = Intrinsic dissolution rate; assay type: physicochemical; details: 37° C., disc 200 rpm, 290 nm, listed as Anhydrous Free Base
Protocol: The intrinsic dissolution rate measurements were carried out in 0.5 cm^2 VanKel punch and die assemblies at a pellet pressure of 2000 pounds. […]
The intrinsic dissolution rate was determined for the phosphate salt in water, pH=6.8 and 0.1N HCl, and for the free base monohydrate in pH=6.8, 4.5 and 0.1N HCl. The measurements were carried out on a VanKel instrument using a Cary UV/VIS spectrophotometer (Table 2).

[3] = Hygroscopicity from DVS sorption/desorption isotherms; assay type: physicochemical; details: listed as anhydrous free base
Protocol: Hygroscopicity was measured from sorption/desorption isotherms using Surface Measurement System DVS-1 at 25±0.5° C. Samples were evaluated at various humidities including 75%, 85%, and 95%.
The free base (anhydrous and monohydrate) and its phosphate salt (form A) were subjected to sorption and desorption cycle using a VTI brand instrument. The solids were collected after the experiment and analyzed. […] The DVS plots are shown in FIGS. 4A (free base, anhydrous), 4B (phosphate salt (form A) and 4C (free base, monohydrate). The maximum water uptake for the phosphate salt (form A) was less than 2% (i.e. 0.7%) at 25° C. up to 95% relative humidity (rh) (see Table 9). The maximum water uptake for the monohydrate was less than 1.4% at 25° C. up to 95% RH. The monohydrate with an approximate water content of 3% could not be completely dried during the experiment but the water that could be removed was reversibly reabsorbed. The plateau of existence of the monohydrate form is found to be within 10% and 95% RH with a slight hysteresis at the second desorption cycle.

[4] = Polymorphic stability by XRPD (equilibration, crystallization, evaporation, precipitation, compression, granulation); assay type: physicochemical; details: room temperature; water, ethanol, isopropanol, ethyl acetate, acetone
Protocol: Slurries of samples were stirred at high speed for 24 hours at 25±0.5° C., filtered, and the solid collected analyzed by XRPD.
About 20 mg of the phosphate salt (form A) was equilibrated with 2 ml of a variety of solvents for at least 24 h at room temperature. Then the solution was filtered and the residue dried overnight at 50° C. under house vacuum. The solid obtained was investigated by XRPD. […]
About 20 mg of the phosphate salt (form A) was also equilibrated at about 50° C. with 2 ml solvent for at least 24 h. Then the solution was filtered and the residue dried overnight at 50° C. under house vacuum. The solid obtained was investigated by XRPD.
About 20 mg of the phosphate salt (form A) was dissolved in 2 ml solvent at 60° C. The solution was filtered. The clear filtrate obtained was cooled in an ice bath and agitated. The precipitate was collected on a filter, dried and investigated by XRPD.
About 20 mg of the phosphate salt (form A) was mixed with 2 ml solvent at 25° C. After stirring overnight, the solution was filtered. The filtrate was placed under nitrogen flow to evaporate the solvent. The residual solid was collected and investigated. The above evaporation was performed without stirring. Upon evaporation from THF/water (1:1) without stirring, a solid with XRPD pattern similar to that of the B form (see FIG. 1C), was obtained once. Subsequently, under these conditions, amorphous material, rather than form B, was obtained.
The same experiments (as described above for the 25° C. evaporation) were performed at 50° C.
Two different solvent combinations were tested. The phosphate salt (form A) was dissolved in DMSO where its solubility was high. A solvent (the anti-solvent) in which the form A was highly insoluble was added to the solution. The precipitate was collected on a filter, dried, and investigated by XRPD.
The phosphate salt (form A, 300 mg) was compressed for 5 minutes at 4000 pounds with a hydraulic press (diameter of the tablets 8 mm).
A solvent (water or ethanol) was added drop wise to the phosphate salt (form A) placed in a mortar until the solid in the mortar was sufficiently wet, and ground using a pestle until a paste-like consistency was obtained. The paste was dried at around 40° C. and under reduced pressure for >8 hours.

[5] = rat, in vivo, iv, 5 mg/kg, i.v. [5 mg/kg]
[6] = rat, in vivo, po, 8.57 mg/kg, free base p.o., suspension (water containing 0.5% HPMC) [8.57 mg/kg]
[7] = rat, in vivo, po, 10 mg/kg, colloidal solution (water, ethanol and cremophor EL) [10 mg/kg]
[8] = rat, in vivo, po, 10 mg/kg, p.o., colloidal solution (water, ethanol and cremophor EL) [10 mg/kg]
[9] = free base p.o., suspension (water containing 0.5% HPMC) [8.57 mg/kg]
[10] = p.o., colloidal solution (water, ethanol and cremophor EL) [10 mg/kg]

With `CCN1CCN(c2ccc(Nc3cc(N(C)C(=O)Nc4c(Cl)c(OC)cc(OC)c4Cl)ncn3)cc2)CC1` [Free Base, 3-(2,6-Dichloro-3,5-dimethoxy-phenyl)-1-{6-[4-(4-ethyl-piperazin-1-yl)-phenylamino]-pyrimidin-4-yl}-1-methyl-urea] the AUC(0-inf) [1, 5] was 2.47 µM·h, the concentration at 5 min ([1]; rat, in vivo, iv, 5 mg/kg, i.v. [5 mg/kg], read-out: C5 min [μmol/L ± SE]) was 0.972 ± 0.404 µmol/L and the concentration at 24 h ([1]; rat, in vivo, iv, 5 mg/kg, i.v. [5 mg/kg], read-out: Clast [μmol/L ± SE]) was 0.003 ± 0.003 µmol/L. The half-life [1, 5] was 4.5 h, the clearance ([1]; rat, in vivo, iv, i.v. [5 mg/kg]) was 60 mL/min/kg and the Vd ([1]; rat, in vivo, iv, i.v. [5 mg/kg], read-out: Vss) was 9.6 L/kg. The AUC(0-inf) [1, 6] was 1.55 µM·h, the Tmax [1, 6] was 2 h and the concentration at 8 h ([1]; rat, in vivo, po, 8.57 mg/kg, free base p.o., suspension (water containing 0.5% HPMC) [8.57 mg/kg], read-out: Clast [μmol/L ± SE]) was 0.077 ± 0.038 µmol/L. The Cmax [1, 6] was 0.202 ± 0.021 µmol/L, the half-life [1, 6] was 4.3 h and the AUC(0-inf) [1, 7] was 1.44 µM·h. For the same compound, the Tmax [1, 7] was 3 h, the concentration at 24 h ([1]; rat, in vivo, po, 10 mg/kg, p.o., colloidal solution (water, ethanol and cremophor EL) [10 mg/kg], read-out: Clast [μmol/L ± SE]) was 0.01 ± 0.005 µmol/L and the Cmax [1, 8] was 0.154 ± 0.026 µmol/L. The half-life [1, 8] was 5.2 h, the “AUC (0-∞) dose ^A [(h · μmol/L)/(mg/kg)]” value [1, 9] was 0.18 (h · μmol/L)/(mg/kg) and the “BAV f [%]” value [1, 9] was 37 ± 11%. For the same compound, the “tlast” value [1, 9] was 8 h, the “AUC (0-∞) dose ^A [(h · μmol/L)/(mg/kg)]” value ([1]; i.v. [5 mg/kg]) was 0.49 (h · μmol/L)/(mg/kg) and the “tlast” value ([1]; i.v. [5 mg/kg]) was 24 h. For the same compound, the “AUC (0-∞) dose ^A [(h · μmol/L)/(mg/kg)]” value [1, 10] was 0.14 (h · μmol/L)/(mg/kg), the “BAV f [%]” value [1, 10] was 29% and the “tlast” value [1, 10] was 24 h. The “amount of degradation products by HPLC (peak area)” value (Solid state stability) was at most 1%, the “Intrinsic DR value” ([2]; HCl 0.1N) was 0.28 mg/min/cm^2 and the “Intrinsic DR value” ([2]; Water) was 0.01 mg/min/cm^2. The “hygroscopicity (in words)” value [3] was “slightly hygroscopic” and the “XRPD after equilibration with solvents” value [4] was “No new XRPD pattern was observed”.
